The values that follow come from publication PMC13233288, “Spider venom peptides Ht1a and Gg1a are toxic to honeybee parasite Varroa destructor by topical application” (npj Drug Discovery, 2026).

Entries after “also recorded” stand apart in the source; their conditions may differ. No end group written: not given here.

Experiment [1] concerns VdNaV. The experiment can be described thus: Two-electrode voltage clamp, VdNaV expressed in Xenopus laevis oocytes. It counts as biochemical, V. destructor. As to conditions: for varroa vs honeybee NaV channel potency: VdNaV compared with AmNaV, 500 nM. An excerpt: (§1) To examine the activity of sHt1a against target and off-target arthropod voltage-gated sodium (NaV) channels, we used electrophysiological recordings of V. destructor (Vd) or A. mellifera (Am) NaV channels expressed in Xenopus laevis oocytes. The cDNA sequences of the VdNaV (in pGH19; kindly gifted by K. Dong[31]) and AmNaV channel (in pcDNA3.1; Genscript, USA) were confirmed by automated Sanger sequencing (Eurofins Genomics, Germany). RNA was synthesised using T7 polymerase (mMessage mMachine kit, Invitrogen, USA) after linearising the cDNA with an appropriate restriction enzyme (New England Biolabs, USA). NaV channel RNA was microinjected into defolliculated X. laevis oocytes (Nasco®, USA) which were then incubated for 2–3 days at 17 °C in Barth’s medium (in millimolar (mM): 96 NaCl, 2 KCl, 5 HEPES, 1 MgCl2, and 1.8 CaCl2 supplemented with 50 µg/mL gentamycin, pH 7.4 adjusted with NaOH (Sigma, USA)). The use of X. laevis complied with national and Flemish guidelines adhered to by the Ghent University Animal Care and Use Committee. Electrophysiological characteristics were studied using the two-electrode voltage-clamp technique (OC-725C; Warner Instruments, USA) with a 150-µL recording chamber as previously described. All data were filtered at 4 kHz (tunable active filter model 900, Frequency Devices Inc., USA) and digitised at 20 kHz using pClamp 10 software (Molecular Devices, USA). The external recording solution used was ND-100 (in mM: 100 NaCl, 5 HEPES, 1 MgCl2, and 1.8 CaCl2, pH 7.6 adjusted with NaOH; chemicals from Sigma, USA). Microelectrode (Narishige® PC-10 vertical puller) resistances were 0.5–1.0 MΩ when backfilled with 3 M KCl. All experiments were performed at room temperature (~22 °C).
(§2) For electrophysiological experiments, sHt1a dissolved at 50 µM in ND100 was added to the recording chamber containing ND100 to a final concentration of 500 nM. After current stabilisation, normalized conductance-voltage (G-V) and channel availability relationships were obtained by measuring steady-state currents upon stepwise depolarisation for 50 ms from a holding potential of –90 mV in 5 mV increments, followed by a 50 ms pulse at –20 mV. The data were fitted with a single Boltzmann function according to I/Imax (or G/Gmax) = [1+exp(-zF(V-V1/2)/RT)]^−1, where I/Imax is the normalised current amplitude, z is the equivalent charge, V1/2 is the half-activation voltage, F is Faraday’s constant, R is the gas constant, and T is the temperature in Kelvin. Off-line data analysis was performed using Clampfit 10 (Molecular Devices, USA), Excel (Microsoft Office) and Prism 10 (GraphPad). Tests for statistical differences included a student’s t-test for V1/2 values and a Kruskal–Wallis test for current inhibition, with p < 0.05 considered to be significant.

Experiment [2] deals with V. destructor mites. The experiment can be described thus: Topical application of synthetic peptides and oxalic acid to V. destructor mites. It counts as in vivo, Varroa destructor. The conditions noted are these: 0.48 μg/mite in 0.5% Silwet (v/v); for earliest onset of mortality: 2-hourly recording between 0 and 48 h; for survival/mortality of V. destructor: n = 5 mites per group, up to 48 h, vs 0.5% Silwet control, two-way ANOVA, Dunnett. As for the experimental part: An outline of the project discovery pipeline is presented in Supplementary Fig. 1. To identify varroacidal venom peptides, we screened venoms for activity against V. destructor by topical application. Topical tests were performed in several stages. First, whole venom was tested to determine mortality for V. destructor. Hit venoms were then subjected to several fractionation steps to isolate the active compounds. For the initial venom screen, a panel of 50 arthropod venoms (Table 1) were topically applied to V. destructor mites. Venoms were dissolved in 90% acetonitrile (v/v), and a 10 μg venom aliquot was applied per mite (n = 5 mites per venom). The dorsal plate of V. destructor mites (average mass 0.38 mg) was fixed to adhesive tape (ScotchTM 666 3 M; 19 × 32.9 mm, double sided) on microscope slides (ground edges 90° frosted end, 76 × 26 mm). A Nanoject II (Automatic Injector with Glass Capillaries, Drummond Cat.No. 3-000-205 A) was used for topical application of venom and control (90% acetonitrile) solutions. To accelerate solvent evaporation, the total volume of 483 nL was applied in seven aliquots of 69 nL each to the ventral plate of the mites between the posterior pair of legs. Each drop was allowed to dry before applying the next one, with the entire application procedure taking up to 1 h. Mite mortality was determined at various time intervals up to 48 h after the treatment using an Olympus stereomicroscope (SZX10/SZX2 Series). Initially, each mite was examined for movements of the legs, and immobile mites were stimulated with the tip of a wooden toothpick. Detection of static electricity by the mites, a few millimetres before the actual contact with the toothpick, was usually sufficient to trigger movement in mites that were still alive. […] At the later stage of the project, the slides with mites were placed into a self-constructed automated video monitoring system (using a USB camera) that employs an algorithm in OpenCV to subtract images from subsequent frames enabling the detection of changes in pixel intensity due to movements, for example of the extremities. Leg movements were stimulated with an air current applied over the mites at the time of image acquisition to determine mite mortality. The percentage of mite mortality for each venom was calculated at 2, 6 and 24 h, and adjusted by correcting for the mortality of the corresponding control group receiving only 90% acetonitrile.
The same procedure initially used for identifying varroacidal venoms was used for testing the topical activity of sHt1a and sGg1a. The peptides were dissolved in 0.5% Silwet L-77 (v/v), a silicone-based surfactant that is commonly used as a spreading agent for foliar sprays. 0.48 μg of peptide was topically applied to each mite, with n = 5 mites per treatment group. The activity of the sHt1a was confirmed using three cohorts of n = 5 mites, whereas the activity of sGg1a was confirmed using four cohorts of n = 5 mites. As a negative control, an equal volume of 0.5% Silwet (v/v) was topically applied (four cohorts of n = 5 mites), and 3% oxalic acid, a known varroacide used in commercial products[10] was used as positive control (eight cohorts of n = 5 mites). Mite mortality was recorded at 2-hourly intervals between 0 and 48 h after the treatment. For statistical analysis, mite survival data were plotted in Prism 10.0 (GraphPad Software, CA, USA), then a two-way ANOVA followed by Dunnett’s multiple comparisons test was performed, comparing the peptide and oxalic acid treatment against the respective 0.5% Silwet (v/v) control group data.

The test system of experiment [3] is AmNaV. The experiment can be described thus: Two-electrode voltage clamp, AmNaV expressed in Xenopus laevis oocytes. In kind it is biochemical, A. mellifera. The conditions noted are these: 500 nM sHt1a.
From the text: as §1, §2
For orientation: In two-electrode clamp one electrode senses voltage and the other passes current.

Where [4] appears, read: VdNav, 500 nM sHt1a, mean ± SEM, n = 5 oocytes.
The mark [5] stands for this setting: AmNav, mean ± SEM, n = 6 oocytes.

As to “KYCAPRKAVCNTPADCCDKSSRCAYPNYGLGYYLDSEFFGKRKICSWRL (also: bicyclic or more (positions not given here)) [Ht1a, μ-gradutoxin-Ht1a]”, in experiment [1] (500 nM sHt1a, ND-100 pH 7.6, ~22 °C, p = 0.0212 (Kruskal–Wallis)), the “reduction in peak VdNaV current” value is recorded as 25.3 ± 7.8%. For the same substance, in experiment [1], the “varroa vs honeybee NaV channel potency” value was “equal potency”. Further, the “varroa vs honeybee NaV channel potency” value in experiment [1] (listed as sHt1a) was “equally active”. The “change in half-maximal activation or inactivation values” in experiment [1] (VdNaV, 500 nM sHt1a, vs before treatment) is listed as “without a significant change”. In experiment [1] (setting [4]), the “Activation Hill slope” value was determined as 3.44 ± 0.55, the “Activation V1/2” value was “–17.7 ± 0.7 mV”, the “Steady state inactivation Hill slope” value is reported as “–4.90 ± 1.29” and the “Steady state inactivation V1/2” value was “–40.8 ± 0.5 mV”. Further, the “potency relative to other insect NaV channel targeting spider toxins” value in experiment [1] (authors' comparison of 500 nM sHt1a data (VdNaV, AmNaV) with literature IC50/EC50) was “less potent than Tx4(6-1) (IC50 = 25 nM[33]) or Dc1a (EC50 = 65 nM[34]), but similarly potent to Aps III (IC50 = 540 nM[35]) and Jingzhaotoxin-I”. Besides, in experiment [2], the “earliest onset of mortality” value came out at 34 h and the “survival/mortality of V. destructor” value is “induced topical mortality; also recorded: reduced varroa mite but not honeybee survival; also recorded: lethal to varroa mites”. The “survival/mortality of V. destructor” value in experiment [2] (listed as sHt1a) is given as “significantly reduced the survival; also recorded: significantly reduced V. destructor survival”. The “reduction in peak AmNaV current” value in experiment [3] (ND-100 pH 7.6, ~22 °C, p = 0.0095 (Kruskal–Wallis)) was found to be 24.7 ± 7.2%. The “change in half-maximal activation or inactivation values” in experiment [3] (AmNaV, vs before treatment) is “without a significant change”. In addition, in experiment [3] (setting [5]), the “Activation Hill slope” value amounted to 3.62 ± 0.61, the “Activation V1/2” value is given as “–27.6 ± 1.3 mV”, the “Steady state inactivation Hill slope” value is reported as “–5.12 ± 1.44” and the “Steady state inactivation V1/2” value is recorded as “–48.2 ± 1.0 mV”.
On to U1-macrothelitoxin-Gg1a, for which, in experiment [2], the “earliest onset of mortality” value is reported as 16 h and the “survival/mortality of V. destructor” value is on record as “induced topical mortality; also recorded: reduced varroa mite but not honeybee survival; also recorded: lethal to varroa mites”. In experiment [2] (listed as sGg1a), the “survival/mortality of V. destructor” value was “significantly reduced the survival; also recorded: significantly reduced V. destructor survival”.
